Reference: PMC4747340, “A new class of small molecule estrogen receptor-alpha antagonists that overcome anti-estrogen resistance” (Oncotarget, 2015)

Tests used:
Assay type in all cases: cell-based
ER Arg394Ala = target: T1, ER Arg394Ala (Homo sapiens, UniProt P03372, R394A); assay: ER mutation analysis, ERE-TK-Luc reporter in transfected MDA-MB-231 cells; conditions: MDA-MB-231 transfected with mutant ER, E2 10 nM, 24 hr
T1 construct: expressed in transfected cells; host or cells: MDA-MB-231
Source text: (§1) B., C. Panels B and C show a comparison of the ER interaction of one of our original series of compounds (A7) (B) and one new compounds (48693-K/1) (C). ER is represented by gray ribbon and its residues interacting with the compounds are drawn with wireframe and labeled. […] The hydrogen bond interaction with ARG 394 is shown in green line. […] The cells were harvested for luciferase assays. Luciferase values are expressed as a percent of the +E2 vehicle control and are means ± SEMs of four wells. The data shown in panels D to G are representative of three independent experiments.
(§2) Subconfluent cells in 24-well dishes were transfected overnight with 0.25 μg of each indicated vector plus the ERE-TK-Luc reporter in serum-free DMEM containing Lipofectamine2000 (Life Technologies, Washington, DC). Total transfected DNA was kept constant by addition of control vector. The cells were washed, incubated in phenol red-free DMEM containing 5% charcoal-stripped serum (obtained from the Tissue Culture Shared Resource) (0.2 ml/well) ± E2 (10 nM) ± the indicated compound for 24-hr, and harvested for luciferase assays. For each assay condition was tested in quadrupicate. To monitor the transfection efficiency, cultures were co-transfected with plasmid pRSV-β-gal (Promega, Madison, WI) to visualize transfected cells by X-gal staining.

ER Glu323Ala = target: T2, ER Glu323Ala (Homo sapiens, UniProt P03372, E323A); assay: as above; conditions: MDA-MB-231 transfected with mutant ER, E2 10 nM, 24 hr
T2 construct: expressed in transfected cells; host or cells: MDA-MB-231
T2 sequence (P03372 whole entry E323A): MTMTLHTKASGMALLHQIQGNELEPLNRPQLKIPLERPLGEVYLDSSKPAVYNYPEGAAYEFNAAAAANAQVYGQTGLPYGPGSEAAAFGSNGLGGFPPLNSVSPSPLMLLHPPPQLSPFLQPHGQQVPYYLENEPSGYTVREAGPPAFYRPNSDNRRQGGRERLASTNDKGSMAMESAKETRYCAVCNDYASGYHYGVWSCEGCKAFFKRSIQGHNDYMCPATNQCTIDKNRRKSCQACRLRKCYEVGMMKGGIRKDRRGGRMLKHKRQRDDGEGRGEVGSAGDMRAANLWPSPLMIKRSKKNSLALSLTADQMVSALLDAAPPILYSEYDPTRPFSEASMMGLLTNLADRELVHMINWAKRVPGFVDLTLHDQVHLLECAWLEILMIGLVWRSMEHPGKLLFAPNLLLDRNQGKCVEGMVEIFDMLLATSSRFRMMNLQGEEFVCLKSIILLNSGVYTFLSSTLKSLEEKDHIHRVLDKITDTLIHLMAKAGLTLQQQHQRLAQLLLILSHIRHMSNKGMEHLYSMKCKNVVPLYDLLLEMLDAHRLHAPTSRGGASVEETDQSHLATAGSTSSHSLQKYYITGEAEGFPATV
Source text: as §1, §2

ER Glu353Ala = target: T3, ER Glu353Ala (Homo sapiens, UniProt P03372, E353A); assay: as above; conditions: MDA-MB-231 transfected with mutant ER, E2 10 nM, 24 hr
T3 construct: expressed in transfected cells; host or cells: MDA-MB-231
T3 sequence (P03372 whole entry E353A): as the sequence (P03372 whole entry E323A) above, with A323E, E353A counted along it
Source text: as §1, §2

ER His356Ala = target: T4, ER His356Ala (Homo sapiens, UniProt P03372, H356A); assay: as above; conditions: MDA-MB-231 transfected with mutant ER, E2 10 nM, 24 hr
T4 construct: expressed in transfected cells; host or cells: MDA-MB-231
T4 sequence (P03372 whole entry H356A): as the sequence (P03372 whole entry E323A) above, with A323E, H356A counted along it
Source text: as §1, §2

ER Ile326Ala = target: T5, ER Ile326Ala (Homo sapiens, UniProt P03372, I326A); assay: as above; conditions: MDA-MB-231 transfected with mutant ER, E2 10 nM, 24 hr
T5 construct: expressed in transfected cells; host or cells: MDA-MB-231
T5 sequence (P03372 whole entry I326A): as the sequence (P03372 whole entry E323A) above, with A323E, I326A counted along it
Source text: as §1, §2

ER Ile386Ala = target: T6, ER Ile386Ala (Homo sapiens, UniProt P03372, I386A); assay: as above; conditions: MDA-MB-231 transfected with mutant ER, E2 10 nM, 24 hr
T6 construct: expressed in transfected cells; host or cells: MDA-MB-231
T6 sequence (P03372 whole entry I386A): as the sequence (P03372 whole entry E323A) above, with A323E, I386A counted along it
Source text: as §1, §2

ER Ile386Ala+Leu387Ala = target: T7, ER Ile386Ala+Leu387Ala (Homo sapiens, UniProt P03372, I386A/L387A); assay: as above; conditions: MDA-MB-231 transfected with mutant ER, E2 10 nM, 24 hr
T7 construct: expressed in transfected cells; host or cells: MDA-MB-231
T7 sequence (P03372 whole entry I386A/L387A): as the sequence (P03372 whole entry E323A) above, with A323E, I386A, L387A counted along it
Source text: as §1, §2

ER Leu327Ala = target: T8, ER Leu327Ala (Homo sapiens, UniProt P03372, L327A); assay: as above; conditions: MDA-MB-231 transfected with mutant ER, E2 10 nM, 24 hr
T8 construct: expressed in transfected cells; host or cells: MDA-MB-231
T8 sequence (P03372 whole entry L327A): as the sequence (P03372 whole entry E323A) above, with A323E, L327A counted along it
Source text: as §1, §2

ER Leu387Ala = target: T9, ER Leu387Ala (Homo sapiens, UniProt P03372, L387A); assay: as above; conditions: MDA-MB-231 transfected with mutant ER, E2 10 nM, 24 hr
T9 construct: expressed in transfected cells; host or cells: MDA-MB-231
T9 sequence (P03372 whole entry L387A): as the sequence (P03372 whole entry E323A) above, with A323E, L387A counted along it
Source text: as §1, §2

ER Lys449Ala = target: T10, ER Lys449Ala (Homo sapiens, UniProt P03372, K449A); assay: as above; conditions: MDA-MB-231 transfected with mutant ER, E2 10 nM, 24 hr
T10 construct: expressed in transfected cells; host or cells: MDA-MB-231
T10 sequence (P03372 whole entry K449A): as the sequence (P03372 whole entry E323A) above, with A323E, K449A counted along it
Source text: as §1, §2

ER Pro324Ala = target: T11, ER Pro324Ala (Homo sapiens, UniProt P03372, P324A); assay: as above; conditions: MDA-MB-231 transfected with mutant ER, E2 10 nM, 24 hr
T11 construct: expressed in transfected cells; host or cells: MDA-MB-231
T11 sequence (P03372 whole entry P324A): as the sequence (P03372 whole entry E323A) above, with A323E, P324A counted along it
Source text: as §1, §2

ER Pro325Ala = target: T12, ER Pro325Ala (Homo sapiens, UniProt P03372, P325A); assay: as above; conditions: MDA-MB-231 transfected with mutant ER, E2 10 nM, 24 hr
T12 construct: expressed in transfected cells; host or cells: MDA-MB-231
T12 sequence (P03372 whole entry P325A): as the sequence (P03372 whole entry E323A) above, with A323E, P325A counted along it
Source text: as §1, §2

ER Prol325Ala = target: T13, ER Prol325Ala (Homo sapiens, UniProt P03372, P325A); assay: as above; conditions: MDA-MB-231 transfected with mutant ER, E2 10 nM, 24 hr; second row for residue 325
T13 construct: expressed in transfected cells; host or cells: MDA-MB-231
T13 sequence (P03372 whole entry P325A): as the sequence (P03372 whole entry E323A) above, with A323E, P325A counted along it
Source text: as §1, §2

ER Trp393Ala = target: T14, ER Trp393Ala (Homo sapiens, UniProt P03372, W393A); assay: as above; conditions: MDA-MB-231 transfected with mutant ER, E2 10 nM, 24 hr
T14 construct: expressed in transfected cells; host or cells: MDA-MB-231
T14 sequence (P03372 whole entry W393A): as the sequence (P03372 whole entry E323A) above, with A323E, W393A counted along it
Source text: as §1, §2

Wild-type ER = target: T15, Wild-type ER (Homo sapiens, UniProt P03372); assay: as above; conditions: MDA-MB-231 transfected with wtER, E2 10 nM, 24 hr
T15 construct: expressed in transfected cells; host or cells: MDA-MB-231
Source text: as §1, §2

[1] = target: T16, estrogen receptor-alpha (ER) (Homo sapiens, UniProt P03372); assay: constitutive ER activity, ERE-TK-Luc reporter, in anti-estrogen resistant LCC9 cells; design: LCC9 cells in 24-well dishes were transfected overnight with the ERE-TK-Luc reporter plasmid; endogenous in cells; host or cells: LCC9; conditions: compound plus Tam compared with compound alone, 24 hr
T16 sequence (P03372 1-595): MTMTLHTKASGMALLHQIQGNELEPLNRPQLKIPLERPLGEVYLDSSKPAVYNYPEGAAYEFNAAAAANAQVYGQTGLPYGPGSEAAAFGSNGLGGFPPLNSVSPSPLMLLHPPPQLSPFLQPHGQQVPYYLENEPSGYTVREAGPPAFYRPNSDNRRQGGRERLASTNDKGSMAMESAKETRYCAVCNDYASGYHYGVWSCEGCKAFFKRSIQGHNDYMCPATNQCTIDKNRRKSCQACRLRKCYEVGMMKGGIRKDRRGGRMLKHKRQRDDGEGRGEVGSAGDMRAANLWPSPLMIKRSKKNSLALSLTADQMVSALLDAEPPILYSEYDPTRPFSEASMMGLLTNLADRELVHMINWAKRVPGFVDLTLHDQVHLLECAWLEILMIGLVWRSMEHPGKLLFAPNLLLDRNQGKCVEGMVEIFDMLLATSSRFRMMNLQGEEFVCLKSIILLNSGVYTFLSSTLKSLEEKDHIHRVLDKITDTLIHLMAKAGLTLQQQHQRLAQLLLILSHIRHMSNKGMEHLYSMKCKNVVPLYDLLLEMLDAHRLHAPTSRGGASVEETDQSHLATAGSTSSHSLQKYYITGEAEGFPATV
Procedure: For MCF-7, luciferase activity is expressed as a fold-change relative to the no E2 control. For LCC9, luciferase activity is expressed relative to the control without the reporter present. Values plotted are means ± SEMs of four replicate wells. The data shown in each panel are representative of three independent experiments.
The cells were then treated with the indicated concentrations of the six bioactive compounds or vehicle only (DMSO) for 24-hr and assayed for luciferase activity. Luciferase activity is expressed as a percentage of the DMSO control. Values are means ± SEMs of four replicate wells. The data shown in each panel are representative of three independent experiments.
The cells were then harvested for luciferase assays. Luciferase activity was expressed as a fold-change relative to the no reporter control. Values plotted are means ± SEMs of four replicate wells. The data shown are representative of three independent experiments.
as §2

T1 sequence (P03372 whole entry R394A): as the sequence (P03372 whole entry E323A) above, with A323E, R394A counted along it

IC50 (ER Arg394Ala): 12 µM
IC50 (ER Glu323Ala): 13 µM
IC50 (ER Glu353Ala): 11 µM
IC50 (ER His356Ala): 11 µM
IC50 (ER Ile326Ala): 13 µM
IC50 (ER Ile386Ala): 2.5 µM
IC50 (ER Ile386Ala+Leu387Ala): 2.5 µM
IC50 (ER Leu327Ala): 12 µM
IC50 (ER Leu387Ala): 2.5 µM
IC50 (ER Lys449Ala): 2 µM
IC50 (ER Pro324Ala): 3 µM
IC50 (ER Pro325Ala): 7 µM
IC50 (ER Prol325Ala): 7 µM
IC50 (ER Trp393Ala): 12 µM
IC50 (Wild-type ER): 2.5 µM
Structure (SMILES): Oc1cc(CN2COc3ccccc32)c(O)cc1CNC1CCCCC1 [A7, reference compound]
ER activity in LCC9 cells, compound combined with Tam [1]: no more inhibition of ER activity than A7 alone
